“Also recorded” adds a separate entry of the source.
Tests used:
[1] = test system: E9.0 PROX1::GFP reporter mouse embryo; experiment: E9.0 PROX1::GFP reporter mouse whole embryo culture with BMS493; conditions: after 2 days, vs DMSO control, FIGS. 11A and 11B
Source text: FIGS. 11A and 11B. PROX1 inhibition by BMS493 exposure with E9.0 PROX1::GFP reporter mouse embryo explant culture. […] Retinoic acid receptors antagonist BMS493 treated group was compared with control (adding DMSO) group. 11A. Bright field image and GFP fluorescent image for embryo after culture. 11B. The area of GFP expressing parts was quantified from GFP image in (a). Scale bar: 1 mm
(§1) In support, Applicant exposed the bAP organoids at D9 to various RA signaling agonists or antagonists. […] Lateral plate mesoderm population acts as an activator for RA signaling during the specification in vivo^22-24. To implicate the cellular source for RA in the model system, RA signaling related genes were assessed in the isolated epithelial and non-epithelial cell populations. […] Complementing this, exposing only the posterior gut spheroid, and not the anterior gut spheroid to BMS493 prior to fusion suppressed the protein-level induction of HHEX and PDX1 (FIG. 10). […] Taken together, HBP progenitor self-specification derived from posterior region in boundary organoid model system is regulated by RA signals, and may be supported by co-differentiating anterior non-epithelial, most likely mesenchymal, lineages.
The Rotator-type Bottle Culture System (Ikemoto Scientific Technology Co., Ltd) was used for whole embryo culture. […]

bAP organoids = bAP organoids exposed to RA signaling agonists or antagonists, gene expression by qPCR; assay type: cell-based, human; conditions: bAP organoids exposed at D9; Day 11, three days culture; FIG. 2G
Method: FIG. 2A-2I. Self-emergence of hepato-biliary-pancreatic progenitors from boundary organoid without inductive factors. 2A. Generating PROX1-tdTomato reporter line by CRISPR-Cas9 gene editing system. 2B. PROX1-tdTomato expression in established PROX1 reporter iPSCs from Day 9 to Day 11. 2C. PROX1-tdTomato positive area in each organoid. AP, AA and PP combinations were evaluated. The tdTomato expression was confirmed in the cell membrane of boundary organoids in AP combination. 2D. Hepatic invagination in mouse liver primordium explant (Prox1::GFP) and human iPSC-derived boundary organoids (PROX1::m-tdTomato). 2E. The immunostaining of PROX1 in E8.75 mice embryo and boundary organoids at Day 13. 2F. Transcriptomic characterization of boundary organoids. Anterior, boundary, and posterior domains were dissected, separated, and applied for RNA sequencing. […] Heatmap was separated into 8 detailed groups (C1-C8) by unbiased hierarchical clustering. […] 2G. Gene expression of HHEX, PDX1, SOX2, and CDX2 at Day 11 with three days culture of retinoic acid, BMS493, R-75251, or WIN18446. 2H. […]
In support, Applicant exposed the bAP organoids at D9 to various RA signaling agonists or antagonists. […] To implicate the cellular source for RA in the model system, RA signaling related genes were assessed in the isolated epithelial and non-epithelial cell populations. […]

posterior gut spheroid = experiment: BMS493 pretreatment of anterior or posterior gut spheroids before fusion, HHEX and PDX1 immunostaining; assay type: cell-based, human; conditions: only posterior gut spheroid exposed prior to fusion; vs untreated control; FIG. 10
Source text: FIG. 10. Abolishment of HHEX and PDX1 induction in posterior gut specific BMS493. BMS493 pretreated anterior or posterior gut spheroids were fused to induce HBP anlage formation. […] Scale bar: 200 μm
as §1
For whole mount immunohistochemical staining, spheroid and organoid were collected from Matrigel™ and removed remaining Matrigel™ by treating with Cell recovery solution at 4° C. for 30 min. The tissues were washed by PBS and were fixed in 4% PFA at 4° C. for overnight. […]

[2] = test system: Cholecystokinin A Receptor (CCKAR) expressing organoids; experiment: CCK exposure of organoids: ductal response and amylase ELISA; assay type: cell-based, human
Source text: FIG. 3A-3O. Modeling human hepato-biliary-pancreatic organogenesis. 3A. Illustration of dissection of PROX1 positive region from HBP organoids and image of before/after dissection. 3B. Optimization of cultured system with 1) Floating, 2) Embedded into Matrigel™, 3) Embedded into Matrigel™ and cultured with Transwell™ from D13, 4). Dissected, embedded into Matrigel™, and cultured with Transwell™ from D13. […] 3C. Morphogenesis of boundary organoids through 2 days from Day 13. 3D. Morphogenetical change of PROX1 dissected tissue from boundary organoids through 30 days of air-liquid interface cultured system. 3E. Stereomicroscopic image of Day 37 organoids. 3F. Boundary organoid has tdTomato expressing hepatobiliary tissues branched out for putative pancreatic domains, similar to cultured mouse E10.5 derived hepato-biliary-pancreas. […]
To determine whether longer-term culture can produce more mature tissue, organoids were cultured until D90. […] Furthermore, the immunofluorescent staining detected the expression of the pancreas marker PDX1 and NGN3, the liver marker PROX1, and the bile duct markers CK19 and SOX9 in the organoids (FIG. 3H). […] Given the Cholecystokinin A Receptor (CCKAR) expression in the organoids (FIG. 3N), organoids were exposed to CCK and the pancreatic secretory function was analyzed with an amylase Enzyme-linked immune sorbent assay (ELISA). […]

Row | amylase secretion in supernatants (ELISA) ([2]; CCK treated vs untreated controls, 3 days-CCK, FIG. 3P) | ductal structures response to CCK ([2]; on the following day, FIG. 3O) | Compound | PROX1 expressing cells (GFP area) [1] | gene expression of HHEX (bAP organoids) | gene expression of PDX1 (bAP organoids) | protein-level induction of HHEX and PDX1 at boundary (posterior gut spheroid)
1 |  |  | CC1(C)CC=C(C#Cc2ccccc2)c2cc(/C=C/c3ccc(C(=O)O)cc3)ccc21 [BMS493] | significant inhibition | strongly suppressed | strongly suppressed | suppressed; also recorded: inhibited
2 | increased | constricted | cholecystokinin [CCK] |  |  |  | 

Source: patent publication US12421500B2, “Hepato-biliary-pancreatic tissues and methods of making same” (CHILDREN'S HOSPITAL MEDICAL CENTER, priority 2018, dated 2025)
